Assay results published in PMC6718736, “Validation of in vitro methods for human cytochrome P450 enzyme induction: Outcome of a multi-laboratory study” (Toxicology in Vitro, 2019).
Read-outs that look alike come from different tables or passages of the source. One block for each compound: values may come before it.

Assays:
CYP = details: cited from earlier work; for CYP induction in vitro (human hepatocytes): CYP isoforms induced, ref Abadie et al. (2009), Richert et al. (2010), Preissner et al. (2010), Hoffmann et al. (2014)
CYP3A4 [1] = details: cited from earlier work; for CYP induction in vivo literature reference: CYP3A4: human in vivo, CYP named without remark = induced, ref references in the cell, Washington University database, Hoffmann et al. (2014), Pelkonen et al. (2008), Hukkanen et al. (2012)
CYP1A2 [2] = details: cited from earlier work; for Induction in vivo: CYP1A2, human, ref Table 1; for CYP induction in vivo literature reference: CYP1A2: human in vivo, CYP named without remark = induced, ref references in the cell, Washington University database, Hoffmann et al. (2014), Pelkonen et al. (2008), Hukkanen et al. (2012); for CYP1A2 induction in vivo: human, ref Andersson, 1996
CYP1A2 [3] = assay: CYP1A2 enzyme induction assay in cryopreserved HepaRG cells (phenacetin probe, LC/MS); assay type: in vitro ADME, human; details: for F2: in vitro concentration producing 2-fold induction; for Prediction in vivo inducer: Cmax/F2 >0.5 criterion; for Assigned classification CYP1A2: HepaRG; as to Assigned classification CYP1A2: key: 1=Positive=inducer; 0=Negative=non-inducer
CYP2B6 [4] = assay: CYP2B6 enzyme induction assay in cryopreserved primary human hepatocytes (PHH); assay type: in vitro ADME; details: for Assigned classification CYP2B6: PHH;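 as to Assigned classification CYP2B6: code 1 means positive inducer and 0 means non-inducer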
CYP2B6 [5] = assay: CYP2B6 enzyme induction assay in cryopreserved HepaRG cells (bupropion probe, LC/MS); assay type: in vitro ADME, human; details: for Prediction in vivo inducer: Cmax/F2 >0.5 criterion; for Assigned classification CYP2B6: HepaRG; as to Assigned classification CYP2B6: key: 1=Positive=inducer; 0=Negative=non-inducer
CYP3A4 [6] = assay: CYP3A4 enzyme induction assay in cryopreserved HepaRG cells (midazolam probe, LC/MS); assay type: in vitro ADME, human; details: for Assigned classification CYP3A4: HepaRG; as to Assigned classification CYP3A4: key: 1=Positive=inducer; 0=Negative=non-inducer
CYP3A4 [7] = assay: CYP3A4 enzyme induction assay in cryopreserved primary human hepatocytes (PHH); details: for Assigned classification CYP3A4: PHH
[8] = cited from earlier work
CYP1A2 [9] = assay: CYP1A2 enzyme induction assay in cryopreserved primary human hepatocytes (PHH); assay type: in vitro ADME; details: for Prediction in vivo inducer: Cmax/F2 >0.5 criterion; for Assigned classification CYP1A2: PHH;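 as to Assigned classification CYP1A2: code 1 means positive inducer and 0 means non-inducer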
[10] = human in vivo plasma concentration, normal dose
[11] = human in vivo, normal dose (Table 10)

F2 (CYP1A2 [3]; CYP1A2, HepaRG cells): 11 µM
F2 (CYP2B6 [4]; CYP2B6, PHH): 33 µM
F2 (CYP2B6 [5]; CYP2B6, HepaRG cells, in vitro concentration producing 2-fold induction): 11.0 to 33.0 µM
F2 (CYP3A4 [6]; CYP3A4, HepaRG cells): 11 µM
F2 (CYP3A4 [7]; CYP3A4, PHH): 3.66 µM
Compound: O=C1C(CC[S+]([O-])c2ccccc2)C(=O)N(c2ccccc2)N1c1ccccc1 (stereo not shown) [Sulfinpyrazone]
CYP2B6 induction in human hepatocytes (CYP; CYP2B6, ref Faucette et al., 2004): demonstrated
CYP induction in vitro (human hepatocytes) (CYP): CYP1A2, CYP2B6, CYP3A4
CYP induction in vivo literature reference: CYP3A4 (CYP3A4 [1]): CYP3A4
Induction in vivo (CYP1A2 [2]): Yes
CYP induction in vivo literature reference: CYP1A2 (CYP1A2 [2]): CYP1A2
Cmax [8, 10]: 45 µM
Cmax [8, 11]: 45 µM

Prediction in vivo inducer (CYP1A2 [3]; CYP1A2, HepaRG cells): No
Prediction in vivo inducer (CYP1A2 [3]; CYP1A2, HepaRG cells, listed as omeprazole): non-inducer
F2 (CYP1A2 [3]; CYP1A2, HepaRG cells): 12.9 µM
Induction in vitro (CYP1A2 [3]; CYP1A2, HepaRG cells, positive in one batch in each of the three laboratories): Yes
Assigned classification CYP1A2 (CYP1A2 [3]; Lab 1, batch 20): 1
Assigned classification CYP1A2 (CYP1A2 [3]; Lab 1, batch 35): 1
Assigned classification CYP1A2 (CYP1A2 [3]; Lab 1, batch 36): 1
Assigned classification CYP1A2 (CYP1A2 [3]; Lab 2, batch 20): 1
Assigned classification CYP1A2 (CYP1A2 [3]; Lab 2, batch 35): 1
Assigned classification CYP1A2 (CYP1A2 [3]; Lab 2, batch 36): 1
Assigned classification CYP1A2 (CYP1A2 [3]; Lab 3, batch 20): 1
Assigned classification CYP1A2 (CYP1A2 [3]; Lab 3, batch 35): 1
Assigned classification CYP1A2 (CYP1A2 [3]; Lab 3, batch 36): 1
F2 (CYP2B6 [4]; CYP2B6, PHH): 38.6 to 116 µM
Induction in vitro (CYP2B6 [4]; CYP2B6, PHH): Yes
Prediction in vivo inducer (CYP2B6 [4]; CYP2B6, PHH): No
Prediction in vivo inducer (CYP2B6 [4]; CYP2B6, PHH, Cmax/F2 >0.5 criterion): non-inducer
Assigned classification CYP2B6 (CYP2B6 [4]; Lab 1, batch 0 6 A): 1
Assigned classification CYP2B6 (CYP2B6 [4]; Lab 1, batch 4 0 8): 1
Assigned classification CYP2B6 (CYP2B6 [4]; Lab 1, batch 8 0 8): 0
Assigned classification CYP2B6 (CYP2B6 [4]; Lab 2, batch 0 6 A): 1
Assigned classification CYP2B6 (CYP2B6 [4]; Lab 2, batch 4 0 8): 0
Assigned classification CYP2B6 (CYP2B6 [4]; Lab 2, batch 8 0 8): 0
Assigned classification CYP2B6 (CYP2B6 [4]; Lab 3, batch 0 6 A): 1
Assigned classification CYP2B6 (CYP2B6 [4]; Lab 3, batch 4 0 8): 1
Assigned classification CYP2B6 (CYP2B6 [4]; Lab 3, batch 8 0 8): 1
Prediction in vivo inducer (CYP2B6 [5]; CYP2B6, HepaRG cells): No
Prediction in vivo inducer (CYP2B6 [5]; CYP2B6, HepaRG cells, listed as omeprazole): predicted as a non-inducer
Induction in vitro (CYP2B6 [5]; CYP2B6, HepaRG cells, positive in one batch in each of the three laboratories): No
Assigned classification CYP2B6 (CYP2B6 [5]; Lab 1, batch 20): 0
Assigned classification CYP2B6 (CYP2B6 [5]; Lab 1, batch 35): 0
Assigned classification CYP2B6 (CYP2B6 [5]; Lab 1, batch 36): 0
Assigned classification CYP2B6 (CYP2B6 [5]; Lab 2, batch 20): 0
Assigned classification CYP2B6 (CYP2B6 [5]; Lab 2, batch 35): 0
Assigned classification CYP2B6 (CYP2B6 [5]; Lab 2, batch 36): 1
Assigned classification CYP2B6 (CYP2B6 [5]; Lab 3, batch 20): 1
Assigned classification CYP2B6 (CYP2B6 [5]; Lab 3, batch 35): 0
Assigned classification CYP2B6 (CYP2B6 [5]; Lab 3, batch 36): 0
Induction in vitro (CYP3A4 [6]; CYP3A4, HepaRG cells): No
Prediction in vivo inducer (CYP3A4 [6]; CYP3A4, HepaRG cells): No
Prediction in vivo inducer (CYP3A4 [6]; CYP3A4, HepaRG cells, Cmax/F2 >0.5 criterion): non-inducer
Assigned classification CYP3A4 (CYP3A4 [6]; Lab 1, batch 20): 0
Assigned classification CYP3A4 (CYP3A4 [6]; Lab 1, batch 35): 0
Assigned classification CYP3A4 (CYP3A4 [6]; Lab 1, batch 36): 0
Assigned classification CYP3A4 (CYP3A4 [6]; Lab 2, batch 20): 0
Assigned classification CYP3A4 (CYP3A4 [6]; Lab 2, batch 35): 0
Assigned classification CYP3A4 (CYP3A4 [6]; Lab 2, batch 36): 0
Assigned classification CYP3A4 (CYP3A4 [6]; Lab 3, batch 20): 0
Assigned classification CYP3A4 (CYP3A4 [6]; Lab 3, batch 35): 0
Assigned classification CYP3A4 (CYP3A4 [6]; Lab 3, batch 36): 0
Prediction in vivo inducer (CYP1A2 [9]; CYP1A2, PHH): No
Prediction in vivo inducer (CYP1A2 [9]; CYP1A2, PHH, listed as omeprazole): non-inducer
F2 (CYP1A2 [9]; CYP1A2, PHH, in vitro concentration producing 2-fold induction): 38.6 to 118 µM
Induction in vitro (CYP1A2 [9]; CYP1A2, PHH, positive in one donor in each of the three laboratories): Yes
Assigned classification CYP1A2 (CYP1A2 [9]; Lab 1, batch 0 6 A): 1
Assigned classification CYP1A2 (CYP1A2 [9]; Lab 1, batch 4 0 8): 1
Assigned classification CYP1A2 (CYP1A2 [9]; Lab 1, batch 8 0 8): 1
Assigned classification CYP1A2 (CYP1A2 [9]; Lab 2, batch 0 6 A): 1
Assigned classification CYP1A2 (CYP1A2 [9]; Lab 2, batch 4 0 8): 1
Assigned classification CYP1A2 (CYP1A2 [9]; Lab 2, batch 8 0 8): 1
Assigned classification CYP1A2 (CYP1A2 [9]; Lab 3, batch 0 6 A): 1
Assigned classification CYP1A2 (CYP1A2 [9]; Lab 3, batch 4 0 8): 1
Assigned classification CYP1A2 (CYP1A2 [9]; Lab 3, batch 8 0 8): 1
F2 (CYP3A4 [7]; CYP3A4, PHH): 38.7 to 117 µM
Induction in vitro (CYP3A4 [7]; CYP3A4, PHH): Yes
Prediction in vivo inducer (CYP3A4 [7]; CYP3A4, PHH): No
Prediction in vivo inducer (CYP3A4 [7]; CYP3A4, PHH, Cmax/F2 >0.5 criterion): non-inducer
Assigned classification CYP3A4 (CYP3A4 [7]; Lab 1, batch 0 6 A): 1
Assigned classification CYP3A4 (CYP3A4 [7]; Lab 1, batch 4 0 8): 0
Assigned classification CYP3A4 (CYP3A4 [7]; Lab 1, batch 8 0 8): 1
Assigned classification CYP3A4 (CYP3A4 [7]; Lab 2, batch 0 6 A): 1
Assigned classification CYP3A4 (CYP3A4 [7]; Lab 2, batch 4 0 8): 0
Assigned classification CYP3A4 (CYP3A4 [7]; Lab 2, batch 8 0 8): 0
Assigned classification CYP3A4 (CYP3A4 [7]; Lab 3, batch 0 6 A): 1
Assigned classification CYP3A4 (CYP3A4 [7]; Lab 3, batch 4 0 8): 0
Assigned classification CYP3A4 (CYP3A4 [7]; Lab 3, batch 8 0 8): 1
Compound: COc1ccc2[nH]c([S+]([O-])Cc3ncc(C)c(OC)c3C)nc2c1 (stereo not shown) [Omeprazole]
CYP induction in vitro (human hepatocytes) (CYP): CYP1A2, CYP2B6, CYP3A4
Induction in vivo (CYP3A4 [1]; CYP3A4, human in vivo reference classification (Table 11)): No
CYP induction in vivo literature reference: CYP3A4 (CYP3A4 [1]): NOT induced
Induction in vivo (CYP1A2 [2]): No
CYP induction in vivo literature reference: CYP1A2 (CYP1A2 [2]): NOT induced at clinically used doses
CYP1A2 induction in vivo (CYP1A2 [2]; 120 mg doses or poor metabolizers (40 mg dose)): weak inducer
CYP1A2 induction in vivo (CYP1A2 [2]; normal doses (20-40 mg)): not a CYP1A2 inducer
Cmax [8, 10]: 0.68 to 3.5 µM
Cmax [8, 11]: 0.68 to 3.5 µM
